What was measured:
Assay in all cases: Histone peptide microarray
Format in all cases: binding, human
AIRE (PP) = conditions: AIRE (PP), GST-tagged; arrays performed twice, n of 4
Description: (§1) To more comprehensively define the histone interactions of the 31 PHD readers identified from the domain microarray analyses, we probed each on an alternate microarray platform containing a library of 293 synthetic histone peptides with single or combinatorial PTMs (Additional file 2: Figure S4 and Additional file 3: Table S2).
(§2) The 31 GST-tagged PHD readers identified in the PHD finger domain array were expressed and purified as previously. Histone peptide arrays and peptide pulldown assays were conducted as recently described (specifically, the optimized protocol from Petell et al. for the former).
(§3) Supplementary file 13072_2020_328_MOESM3_ESM.xlsx: Additional file 3: Table S2. […] Excel Tab Peptide List is a compiled list of the entire 293 histone peptide library with amino acid sequence ranges. […] Each number corresponds to the peptide number designated in Peptide List. Excel Tab Average Signals is a compiled set of binding data: chromatin reader at 0.5 μM vs. entire 293 peptide library. Data is presented as the average and standard deviation of 4 replicates. The average signals are colored to indicate signal intensity with green being strong and white being weak/low. […] Key: red= stronger relative binding; blue = weaker relative binding. Excel Tab Array info summary is a table summarizing the domains, sequence coverage, array signal range, and noise for each of the GST-tagged readers assayed on the peptide microarrays.

BAZ2B = conditions: BAZ2B, GST-tagged; arrays performed twice, n of 4
Description: as §1, §2, §3

BPTF (PB) = conditions: BPTF (PB), GST-tagged; arrays performed twice, n of 4
Description: as §1, §2, §3

CHD4 (PPCC) = conditions: CHD4 (PPCC), GST-tagged; arrays performed twice, n of 4
Description: as §1, §2, §3

CHD5 (PCC) = conditions: CHD5 (PCC), GST-tagged; arrays performed twice, n of 4
Description: as §1, §2, §3

CHD5 (PPCC) = conditions: CHD5 (PPCC), GST-tagged; arrays performed twice, n of 4
Description: as §1, §2, §3

DIDO1 = conditions: DIDO1, GST-tagged; arrays performed twice, n of 4
Description: as §1, §2, §3

DPF2 (PPC2W2) = conditions: DPF2 (PPC2W2), GST-tagged; arrays performed twice, n of 4
Description: as §1, §2, §3

ING1 = conditions: ING1, GST-tagged; arrays performed twice, n of 4
Description: as §1, §2, §3

ING2 = conditions: ING2, GST-tagged; arrays performed twice, n of 4
Description: as §1, §2, §3

ING3 = conditions: ING3, GST-tagged; arrays performed twice, n of 4
Description: as §1, §2, §3

ING4 = conditions: ING4, GST-tagged; arrays performed twice, n of 4
Description: as §1, §2, §3

ING5 = conditions: ING5, GST-tagged; arrays performed twice, n of 4
Description: as §1, §2, §3

KDM4C (TTP) = conditions: KDM4C (TTP), GST-tagged; arrays performed twice, n of 4
Description: as §1, §2, §3

KDM5A (1) = conditions: KDM5A (1), GST-tagged; arrays performed twice, n of 4
Description: as §1, §2, §3

KDM5A (3) = conditions: KDM5A (3), GST-tagged; arrays performed twice, n of 4
Description: as §1, §2, §3

KDM5B (1) = conditions: KDM5B (1), GST-tagged; arrays performed twice, n of 4
Description: as §1, §2, §3

KDM5B (3) = conditions: KDM5B (3), GST-tagged; arrays performed twice, n of 4
Description: as §1, §2, §3

KDM7A = conditions: KDM7A, GST-tagged; arrays performed twice, n of 4
Description: as §1, §2, §3

MLL5 = conditions: MLL5, GST-tagged; arrays performed twice, n of 4
Description: as §1, §2, §3

MORC3 (CW) = conditions: MORC3 (CW), GST-tagged; arrays performed twice, n of 4
Description: as §1, §2, §3

PHF13 = conditions: PHF13, GST-tagged; arrays performed twice, n of 4
Description: as §1, §2, §3

PHF21A = conditions: PHF21A, GST-tagged; arrays performed twice, n of 4
Description: as §1, §2, §3

PHF23 = conditions: PHF23, GST-tagged; arrays performed twice, n of 4
Description: as §1, §2, §3

PHF2 = conditions: PHF2, GST-tagged; arrays performed twice, n of 4
Description: as §1, §2, §3

PHF8 = conditions: PHF8, GST-tagged; arrays performed twice, n of 4
Description: as §1, §2, §3

PHRF1 (RP) = conditions: PHRF1 (RP), GST-tagged; arrays performed twice, n of 4
Description: as §1, §2, §3

RAG2 = conditions: RAG2, GST-tagged; arrays performed twice, n of 4
Description: as §1, §2, §3

SP140L = conditions: SP140L, GST-tagged; arrays performed twice, n of 4
Description: as §1, §2, §3

TAF3 = conditions: TAF3, GST-tagged; arrays performed twice, n of 4
Description: as §1, §2, §3

TRIM66 (PB) = conditions: TRIM66 (PB), GST-tagged; arrays performed twice, n of 4
Description: as §1, §2, §3

Array Heatmap value (peptide array binding signal) (AIRE (PP)): 0.5101
Array Heatmap value (peptide array binding signal) (BAZ2B): 0.4957
Array Heatmap value (peptide array binding signal) (BPTF (PB)): 0.3717
Array Heatmap value (peptide array binding signal) (CHD4 (PPCC)): 0.6413
Array Heatmap value (peptide array binding signal) (CHD5 (PCC)): 0.7773
Array Heatmap value (peptide array binding signal) (CHD5 (PPCC)): 0.5941
Array Heatmap value (peptide array binding signal) (DIDO1): 0.7788
Array Heatmap value (peptide array binding signal) (DPF2 (PPC2W2)): 0.7579
Array Heatmap value (peptide array binding signal) (ING1): 0.59
Array Heatmap value (peptide array binding signal) (ING2): 0.6399
Array Heatmap value (peptide array binding signal) (ING3): 0.4903
Array Heatmap value (peptide array binding signal) (ING4): 0.5057
Array Heatmap value (peptide array binding signal) (ING5): 0.397
Array Heatmap value (peptide array binding signal) (KDM4C (TTP)): 0.5571
Array Heatmap value (peptide array binding signal) (KDM5A (1)): 0.5113
Array Heatmap value (peptide array binding signal) (KDM5A (3)): 0.4938
Array Heatmap value (peptide array binding signal) (KDM5B (1)): 0.6648
Array Heatmap value (peptide array binding signal) (KDM5B (3)): 0.4825
Array Heatmap value (peptide array binding signal) (KDM7A): 0.5232
Array Heatmap value (peptide array binding signal) (MLL5): 0.6112
Array Heatmap value (peptide array binding signal) (MORC3 (CW)): 0.3763
Array Heatmap value (peptide array binding signal) (PHF13): 0.6442
Array Heatmap value (peptide array binding signal) (PHF21A): 0.4741
Array Heatmap value (peptide array binding signal) (PHF23): 0.5869
Array Heatmap value (peptide array binding signal) (PHF2): 0.5123
Array Heatmap value (peptide array binding signal) (PHF8): 0.4334
Array Heatmap value (peptide array binding signal) (PHRF1 (RP)): 0.4628
Array Heatmap value (peptide array binding signal) (RAG2): 0.2504
Array Heatmap value (peptide array binding signal) (SP140L): 0.3812
Array Heatmap value (peptide array binding signal) (TAF3): 0.2755
Array Heatmap value (peptide array binding signal) (TRIM66 (PB)): 0.5647
Substance: H3 (21-44): H3 21-44
